Experimental data: patent US11471463B2, “Enhancers of cellular cannibalism for use to sensitize tumors to radiation therapy” (Institut Gustave-Roussy, priority 2017, dated 2022)
Entries after “also recorded” stand apart in the source; their conditions may differ. Counter-ions that a name gives are not always drawn.

Columns and labels:
HCT116 cells = experiment: Screening for enhancers of IR-mediated cellular cannibalism (imaging flow cytometry, confocal microscopy validation); type: cell-based, human; conditions: 8 Gray, 10 μM compound, 24 hours of culture
Procedure: FIG. 4 Identification of cannibalism modulators triggered by ionizing radiation. Compounds from the Prestwick (A) and CEA (F) libraries were tested for their capacities to induce cellular cannibalism after ionizing radiation. Cannibal cells were detected after homotypic cultures of 8 gray γ-irradiation HCT116 cells in the presence or absence of […] of the Prestwick (A) and CEA […] library compounds. Each dot represents one compound. Representative images are shown in (B, G). (C, H) HCT116 cells were treated with the indicated drugs. After 24 h of treatment, cell death was monitored by staining with 3,3 dihexyloxacarbocyanine iodide (DiOC6(3)) and PI, and the percentage of dying (DiOC6(3)^low PI^−, open bars) and dead (DiOC6(3)^low PI^+, closed bars) cells was determined by cytofluorometry. Validation of the cannibalism inducers by fluorescent microscopy. Representative images (D, I) and quantification (E, J) are shown. Results are means±s.e.m. of triplicate determinations.
Then, the screening of a library of chemical compounds was developed in order to identify compounds able to induce IR-mediated cellular cannibalism. Thus, HCT116 cells that have been treated with a radiation dose of 8 Gray were stained either with orange CMTMR cell tracker or green CMFDA cell tracker and cultivated in presence of 10 μM of chemical compounds. After 24 hours of culture, cells have been stained with nuclear dye (5 μg/ml of Hoechst 33342 during 1 h at 37° C.) and analyzed using the FlowSight® Imaging Flow Cytometer for cellular cannibalism. Each of these compounds were classified according to their Z-score^47 and identified respectively 13 and 11 candidate compounds (FIGS. 4A, 4B, 4F and 4G). Then, the identified compounds were validated by combining flow cytometry approaches (in order to eliminate cytotoxic compounds by simultaneously monitoring the depolarization of the internal mitochondrial membrane and the plasma membrane permeability of the treated cells) with confocal microscopy approaches (to confirm the modulation of IR-induced cellular cannibalism by candidate compounds) (FIGS. 4C-E and 4H-J). […] Finally, 16 chemical compounds that are able to enhance the capacity of IR to trigger cellular cannibalism were identified (FIGS. 4E and 4J, Tables 1&2).

CT26 cells = experiment: Anti-tumor vaccination assay, treated CT26 cells inoculated into BALB/c mice and rechallenge; type: in vivo, mouse; conditions: for Protective response after injection of cancer cells, compound alone: CT26 cells treated with 10 μM compound alone (no IR); for Frequency of mice showing a protective response: 8 Gy in presence of 10 μM compound for 24 hours
Procedure: FIG. 5. Identification of cannibalism modulators as immunogenic cell death inducers. MCA205 (A) or CT26 (E, I, M, Q) cells were treated with the indicated drugs. After 24 h of coculture with the indicated treatment, cell death was monitored by staining DiOC6(3) and PI, and the percentage of dying (DiOC6(3)^low PI^−, open bars) and dead (DiOC6(3)^low PI^+, closed bars) cells was determined by cytofluorometry. (B-D) MCA205 cells or (F-H, J-L, N-P, R-T) CT26 cells cocultured after x irradiation with the indicated compounds were inoculated subcutaneously into the right flank of […] or BALB/c mice, respectively. Seven days later, the mice were rechallenged with live cells injected into the opposite flank, and tumor growth was monitored (five mice per group).
FIG. 6. Tumor vaccination experiments. CT26 cells were treated for 24 hours with 10 μM VP331 (A, F, K), 10 μM Minaprine (B, G, L), 10 μM Lopa87 (C, H, M), 10 μM SG6163F (D, I, N), 10 μM Azaguanine-8 (8-aza) (E, J, O) alone or combined with 8 Gy ionizing radiation and inoculated (s.c.) into immunocompetent BALB/c mice, which were rechallenged at the opposite flank 7 days later with the same cancer cells. The percentage of tumor-free mice was evaluated three times a week for the following 38 days. Percentage of total tumor free mice (A-E), tumor free-mice at the first injection site (F to J, P) or at the second injection site (K to O, Q) are shown. (*P<0.05, **P<0.01, ***P<0.001, two-way ANOVA).
Considering that immunogenic cell death (ICD) inducers were identified (such as Digoxin, Digitoxin, Lanatoside C or Doxorubicin hydrochloride)^3, 4, 48-51) as IRCCE, the ability of these compounds to induce an antitumor immunity after radiotherapy was evaluated. First, a preclinical approaches was developed to study the immunological effects of IRCCE on two mouse models of carcinoma (colon CT26 carcinoma and fibrosarcoma MCA205). Initially, the ability of the combination of IRCCE+IR to trigger a specific anti-tumor immune response was appreciated using immunocompetent mice through anti-tumor vaccination assays. According to previously published studies^52, the injection of cancer cells succumbing to an immunogenic cell death (ICD) into immunocompetent mice must elicit a protective immune response that is specific for tumor antigens. Thus, 3×10^5 MCA205 cells were first treated with 10 μM of SG6163F for 24 hours. Then, treated cells were inoculated subcutaneously in 200 μl PBS into the lower flank of 8-week-old female C57BL/6 mice. One week later, 3×10^4 untreated control cells were inoculated into the contralateral flank of mice. Tumors were evaluated weekly using a common caliper. Animals bearing tumors that exceeded 20-25% body mass were euthanatized. […] Then, 3×10^6 CT26 cells were irradiated with 8 Gy in presence of 10 μM of SG6163F (FIGS. 5E and 5F), VP331 (FIGS. 5I and 5J), Minaprine dihydrochloride (FIGS. 5M and 5N) or LOPA87 (FIGS. 5Q and 5R) for 24 hours. Then, cells were inoculated as previously described subcutaneously in 200 μl PBS into the lower flank of 8-week-old female BALB/c mice. One week later, 5×10^5 untreated control cells were inoculated into the contralateral flank of mice and tumors were evaluated weekly using a common caliper. As previously mentioned, animals bearing tumors that exceeded 20-25% body mass were euthanatized. The percentage of dying cells in each condition was evaluated by determining with DiOC(6)3/IP staining (FIGS. 5E, 5I, 5M and 5Q). Finally, the ability of these compounds to repress the growth of cancer cells that have been injected 7 days after injection of irradiated and treated cancer cells was appreciated.
A second anti-tumor vaccination assay was done on CT26 mouse models of carcinoma as previously described. […]

[1] = first assay: CT26 cells, rechallenge one week later
[2] = second assay: CT26 cells, rechallenge 7 days later

Row | Compound | Enhancement of IR-mediated cellular cannibalism (IRCCE) (HCT116 cells) | further results
1 | Cc1cc(-c2ccccc2)nnc1NCCN1CCOCC1.Cl.Cl [Minaprine dihydrochloride] | efficient cellular cannibalism enhancer | Protective response after injection of cancer cells, compound alone (CT26 cells; dihydrochloride): induce an increase of protective response; also recorded: intrinsic protective effects against tumor development; Frequency of mice showing a protective response (CT26 cells; [1]): significant increase in the frequency of mice showing a protective response; Frequency of mice showing a protective response (CT26 cells; [2]): Significant increases in the frequency of mice showing a protective response
2 | C[C@H]1O[C@@H](O[C@H]2[C@@H](O)C[C@H](O[C@H]3[C@@H](O)C[C@H](O[C@H]4CC[C@@]5(C)[C@H](CC[C@@H]6[C@@H]5C[C@@H](O)[C@]5(C)[C@@H](C7=CC(=O)OC7)CC[C@]65O)C4)O[C@@H]3C)O[C@@H]2C)C[C@H](O)[C@@H]1O [Digoxin] | IRCCE; also recorded: efficient cellular cannibalism enhancer | 
3 | CCOC(=O)n1ccn(C)c1=S [Carbimazole] | no effect | 
4 | COc1cc(O)ccc1/C=N/c1ccccc1C(=O)Nc1ccccc1 [RN-1-026] | efficient cellular cannibalism enhancer | 
5 | C[C@H]1O[C@@H](O[C@H]2[C@@H](O)C[C@H](O[C@H]3[C@@H](O)C[C@H](O[C@H]4CC[C@@]5(C)[C@H](CC[C@@H]6[C@@H]5CC[C@]5(C)[C@@H](C7=CC(=O)OC7)CC[C@]65O)C4)O[C@@H]3C)O[C@@H]2C)C[C@H](O)[C@@H]1O [Digitoxin] | IRCCE; also recorded: efficient cellular cannibalism enhancer | 
6 | COC(=O)Nc1nc2ccc(Sc3ccccc3)cc2[nH]1 [Fenbendazol] | no effect | 
7 | COc1cccc2c1C(=O)c1c(O)c3c(c(O)c1C2=O)C[C@@](O)(C(=O)CO)C[C@@H]3O[C@H]1C[C@H](N)[C@H](O)[C@H](C)O1.Cl [Doxorubicine hydrochloride, Doxorubicin hydrochloride] |  | Enhancement of IR-mediated cellular cannibalism (IRCCE) (HCT116 cells; hydrochloride): efficient cellular cannibalism enhancer; Enhancement of IR-mediated cellular cannibalism (IRCCE) (HCT116 cells; listed as Doxorubicin hydrochloride, hydrochloride): IRCCE
8 | CC(C(=O)O)c1ccc(-c2ccccc2)c(F)c1 (stereo not drawn) [Flurbiprofen] | efficient cellular cannibalism enhancer | 
9 | CN1CCc2c(c3ccccc3n2Cc2ccccc2)C1 [Mebhydroline 1,5-napthalene disulfonate salt] | efficient cellular cannibalism enhancer | 
10 | Myricetin | efficient cellular cannibalism enhancer | 
11 | CN(C)c1ccc(-c2cc(=O)[nH]c(-c3ccccc3)n2)cc1 [LOPA87] | efficient cellular cannibalism enhancer | Frequency of mice showing a protective response (CT26 cells; [1]): significant increase in the frequency of mice showing a protective response; Frequency of mice showing a protective response (CT26 cells; [2]): Significant increases in the frequency of mice showing a protective response
12 | CN1c2ccccc2C(=O)N(c2ccccc2)C1c1ccc(-c2csc(CO)c2)s1 (stereo not drawn) [VP43] | efficient cellular cannibalism enhancer | 
13 | Nc1nc2[nH]nnc2c(=O)[nH]1 [8-Azaguanine] | efficient cellular cannibalism enhancer | Protective response after injection of cancer cells, compound alone (CT26 cells): induce an increase of protective response; Frequency of mice showing a protective response (CT26 cells; [2]): Significant increases in the frequency of mice showing a protective response
14 | O=C(N/N=C/c1ncc[nH]1)NC12CC3CC(CC(C3)C1)C2 [VP450] | efficient cellular cannibalism enhancer | 
15 | COc1ccc(C)cc1/C=N/[C@@H]1C[C@@H]2C[C@H]([C@H]1C)C2(C)C [VP331] | efficient cellular cannibalism enhancer | Frequency of mice showing a protective response (CT26 cells; [1]): significant increase in the frequency of mice showing a protective response; Frequency of mice showing a protective response (CT26 cells; [2]): Significant increases in the frequency of mice showing a protective response
16 | CC(=O)O[C@H]1C[C@H](O[C@H]2[C@@H](O)C[C@H](O[C@H]3[C@@H](O)C[C@H](O[C@H]4CC[C@@]5(C)[C@H](CC[C@@H]6[C@@H]5C[C@@H](O)[C@]5(C)[C@@H](C7=CC(=O)OC7)CC[C@]65O)C4)O[C@@H]3C)O[C@@H]2C)O[C@H](C)[C@H]1O[C@@H]1O[C@H](CO)[C@@H](O)[C@H](O)[C@H]1O [Lanatoside, Lanatoside C] | efficient cellular cannibalism enhancer | Enhancement of IR-mediated cellular cannibalism (IRCCE) (HCT116 cells; listed as Lanatoside C): IRCCE
